Results on 6 compounds are retold here after ChEMBL document CHEMBL4699481, “Structure-based amelioration of PXR transactivation in a novel series of macrocyclic allosteric inhibitors of HIV-1 integrase” (Bioorg Med Chem Lett, 2020).

Data set [1] is described as follows: Allosteric inhibition of HIV-1 integrase assessed as antiviral activity against HIV-1 NL4-3 infected in human MT-2 cells by measuring inhibition of viral growth by luciferase reporter gene assay. It counts as cell-based. Particulars: Human immunodeficiency virus 1, NL4-3, MT2. In general terms: A reporter such as luciferase makes a cellular process visible.
The target in data set [2] is T1, Nuclear receptor subfamily 1 group I member 2 (Homo sapiens, UniProt O75469).
T1 sequence (O75469 whole entry): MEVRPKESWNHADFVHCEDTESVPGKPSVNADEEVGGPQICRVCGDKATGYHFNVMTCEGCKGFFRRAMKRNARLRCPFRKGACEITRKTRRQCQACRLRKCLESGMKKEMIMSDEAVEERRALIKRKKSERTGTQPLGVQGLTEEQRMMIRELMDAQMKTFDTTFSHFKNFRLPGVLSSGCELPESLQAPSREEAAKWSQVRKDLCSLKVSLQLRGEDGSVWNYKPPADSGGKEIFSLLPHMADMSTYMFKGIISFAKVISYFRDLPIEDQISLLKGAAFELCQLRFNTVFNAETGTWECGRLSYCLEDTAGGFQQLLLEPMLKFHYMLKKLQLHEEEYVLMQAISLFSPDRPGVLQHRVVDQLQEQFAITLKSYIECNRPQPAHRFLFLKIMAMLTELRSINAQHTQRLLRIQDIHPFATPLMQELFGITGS
As to the kind of experiment: Transactivation of human PXR transfected in human HepG2 cells co-transfected with CYP3A4-Luc plasmid incubated for overnight by luciferase reporter gene assay. Type of data set: ADME, cell-based.

The next data set deals with T2, PXR (NR1I2) (Homo sapiens, UniProt O75469).
T2 sequence (O75469 whole entry): T1 sequence (O75469 whole entry)
As to the kind of experiment: Transactivation of human PXR transfected in human HepG2 cells co-transfected with CYP3A4-Luc plasmid incubated for overnight by luciferase reporter gene assay relative to 10 uM rifampicin. Type of data set: ADME, cell-based.

As usually defined, the EC50 is the concentration that produces a half-maximal response. The Emax is the greatest response seen or fitted, relative to the assay's reference.

Turning to `Cc1nc2cc(-c3cccc(-c4ccccc4)c3)nn2c(N2CCC(C)(C)CC2)c1[C@H](OC(C)(C)C)C(=O)O`, the EC50 in data set [1] is 130 nM.

In the case of `Cc1cc2nc(-c3cccc(-c4cccc(F)c4)c3)cn2c(N2CCC(C)(C)CC2)c1[C@H](OC(C)(C)C)C(=O)O`, in data set [1], the EC50 is 20.9 nM. Take `Cc1c([C@H](OC(C)(C)C)C(=O)O)c2n3cc(nc3c1CNC(C)C)-c1cccc(c1)-c1cc(F)ccc1O[C@@H](C)CCCCOC1(C)CCN2CC1`: the EC50 in data set [1] is 7.3 nM; in data set [2], > 50000 nM.

In the case of `Cc1c([C@H](OC(C)(C)C)C(=O)O)c2n3cc(nc3c1CNCC(C)(C)O)-c1cccc(c1)-c1cc(F)ccc1O[C@@H](C)CCCCOC1(C)CCN2CC1`, the EC50 in data set [1] is 9.5 nM; in data set [2] it was > 50000 nM. For the compound `Cc1c([C@H](OC(C)(C)C)C(=O)O)c2n3cc(nc3c1C(C)(C)O)-c1cccc(c1)-c1cc(F)ccc1O[C@@H](C)CCCCOC1(C)CCN2CC1`, the EC50 in data set [1] is 5.7 nM; in data set [2], 1010 nM. The compound also had an Emax on PXR (NR1I2) of 71%. On to `Cc1c([C@H](OC(C)(C)C)C(=O)O)c2n3cc(nc3c1CN(C)C)-c1cccc(c1)-c1cc(F)ccc1O[C@@H](C)CCCCOC1(C)CCN2CC1`, for which the figures for the EC50 in data set [1] and in data set [2] were 4.4 nM and > 50000 nM, respectively.
